Measurements as given in patent US20210309595A1, “COMPOSITION FOR FORMING OPTICAL COMPONENT, OPTICAL COMPONENT, COMPOUND, AND RESIN” (Mitsubishi Gas Chemical Company, Inc., priority 2018, published 2021).

Key:
Assay type in all cases: physicochemical
[1] = Solubility test in organic solvent (amount of dissolution); conditions: amount of dissolution in propylene glycol monomethyl ether, 23° C., ultrasonic waves 30 minutes, visual observation
Procedure: With respect to the solubility of each compound in an organic solvent, the solubility of the compound in propylene glycol monomethyl ether was measured. The solubility was evaluated according to the following criteria, using the amount of dissolution in propylene glycol monomethyl ether. For the measurement of the amount of dissolution, the evaluation was carried out by precisely weighing the compound in a test tube at 23° C., […], applying ultrasonic waves for 30 minutes with an ultrasonic cleaning machine, visually observing the subsequent state of the liquid, and determining the concentration of the completely dissolved amount as the basis.

[2] = Refractive index of optical component forming film (spectroscopic ellipsometer); conditions: wavelength 633 nm; 1000 nm film from 5% by mass composition, baked 110° C. 60 seconds
Procedure: (§1) The compositions for forming optical components were each prepared so that the amount of the compound shown in the following table was 5% by mass in propylene glycol methyl ether. Next, a silicon substrate was spin coated with each of these compositions for forming an optical component, and then baked at 110° C. for 60 seconds to prepare an optical component forming film each having a film thickness of 1000 nm.
(§2) Then, tests for the refractive index and the transparency at a wavelength of 633 nm were carried out by using a vacuum ultraviolet with variable angle spectroscopic ellipsometer (model name: VUV-VASE) manufactured by J.A. Woollam Japan, and the refractive index and the transparency were evaluated.

[3] = Transparency (absorption coefficient) of optical component forming film; conditions: absorption coefficient at wavelength 633 nm; 1000 nm film, baked 110° C. 60 seconds
Procedure: as §1, §2

[4] = Film heat resistance (visual defects after baking); set-up: key: A: No visual defects in the film; C: Visual defects in the film (including the loss of films); conditions: film baked at 110° C. for 5 minutes
Procedure: as §1
The optical component forming film was baked at 110° C. for 5 minutes to evaluate the film heat resistance.

Compound	Solubility test [1]	Evaluation of refractive index [2]	Evaluation of transparency [3]	Evaluation of film heat resistance [4]
C=CC(=O)Oc1ccc2ccc3c(c2c1)C(c1ccc2ccccc2c1)c1c(ccc2ccc(OC(=O)C=C)cc12)O3 [BiN-1-Ac]	A (5.0% by mass≤amount of dissolution)	B (The refractive index is 1.65 or more and less than 1.75.)	A (The absorption coefficient is less than 0.03.)	A
OCCOc1ccc2ccc3c(c2c1)C(c1ccc2ccccc2c1)c1c(ccc2ccc(OCCO)cc12)O3 [BiN-1-E]	A (5.0% by mass≤amount of dissolution)	B (The refractive index is 1.65 or more and less than 1.75.)	A (The absorption coefficient is less than 0.03.)	A
C=C(C)C(=O)OCC(O)COc1ccc2ccc3c(c2c1)C(c1ccc2ccccc2c1)c1c(ccc2ccc(OCC(O)COC(=O)C(=C)C)cc12)O3 (centres unmarked) [BiN-1-Ea]	A (5.0% by mass≤amount of dissolution)	B (The refractive index is 1.65 or more and less than 1.75.)	A (The absorption coefficient is less than 0.03.)	A
c1ccc2cc(C3c4c(ccc5ccc(OCCOCC6CO6)cc45)Oc4ccc5ccc(OCCOCC6CO6)cc5c43)ccc2c1 (centres unmarked) [BiN-1-GE]	A (5.0% by mass≤amount of dissolution)	A (The refractive index is 1.75 or more.)	A (The absorption coefficient is less than 0.03.)	A
c1ccc2cc(C3c4c(ccc5ccc(OCC6CO6)cc45)Oc4ccc5ccc(OCC6CO6)cc5c43)ccc2c1 (centres unmarked) [BiN-1-G]	A (5.0% by mass≤amount of dissolution)	A (The refractive index is 1.75 or more.)	A (The absorption coefficient is less than 0.03.)	A
Oc1ccc(CCOc2ccc3ccc4c(c3c2)C(c2ccc3ccccc3c2)c2c(ccc3ccc(OCCc5ccc(O)cc5)cc23)O4)cc1 [BiN-1-PE]	A (5.0% by mass≤amount of dissolution)	A (The refractive index is 1.75 or more.)	A (The absorption coefficient is less than 0.03.)	A
Oc1ccc(Oc2ccc3ccc4c(c3c2)C(c2ccc3ccccc3c2)c2c(ccc3ccc(Oc5ccc(O)cc5)cc23)O4)cc1 [BiN-1-PX]	A (5.0% by mass≤amount of dissolution)	A (The refractive index is 1.75 or more.)	A (The absorption coefficient is less than 0.03.)	A
C#CCOc1ccc2ccc3c(c2c1)C(c1ccc2ccccc2c1)c1c(ccc2ccc(OCC#C)cc12)O3 [BiN-1-Pr]	A (5.0% by mass≤amount of dissolution)	A (The refractive index is 1.75 or more.)	A (The absorption coefficient is less than 0.03.)	A
C=Cc1ccc(COCCOc2ccc3ccc4c(c3c2)C(c2ccc3ccccc3c2)c2c(ccc3ccc(OCCOCc5ccc(C=C)cc5)cc23)O4)cc1 [BiN-1-SE]	A (5.0% by mass≤amount of dissolution)	A (The refractive index is 1.75 or more.)	A (The absorption coefficient is less than 0.03.)	A
C=Cc1ccc(COc2ccc3ccc4c(c3c2)C(c2ccc3ccccc3c2)c2c(ccc3ccc(OCc5ccc(C=C)cc5)cc23)O4)cc1 [BiN-1-SX]	A (5.0% by mass≤amount of dissolution)	A (The refractive index is 1.75 or more.)	A (The absorption coefficient is less than 0.03.)	A
C=C(C)C(=O)OCCC(N)C(=O)Oc1ccc2ccc3c(c2c1)C(c1ccc2ccccc2c1)c1c(ccc2ccc(OC(=O)C(N)CCOC(=O)C(=C)C)cc12)O3 (centres unmarked) [BiN-1-Ua]	A (5.0% by mass≤amount of dissolution)	B (The refractive index is 1.65 or more and less than 1.75.)	A (The absorption coefficient is less than 0.03.)	A
Oc1ccc2ccc(O)c(C(c3ccc4ccccc4c3)c3c(O)ccc4ccc(O)cc34)c2c1 [BiN-1U]	A (5.0% by mass≤amount of dissolution)	A (The refractive index is 1.75 or more.)	A (The absorption coefficient is less than 0.03.)	A
Oc1ccc2ccc3c(c2c1)C(c1ccc2ccccc2c1)c1c(ccc2ccc(O)cc12)O3 [BiN-1]	A (5.0% by mass≤amount of dissolution)	A (The refractive index is 1.75 or more.)	A (The absorption coefficient is less than 0.03.)	A
Oc1ccc2ccc3c(c2c1)C(c1cccc2ccccc12)c1c(ccc2ccc(O)cc12)O3 [BiN-2]	A (5.0% by mass≤amount of dissolution)	A (The refractive index is 1.75 or more.)	A (The absorption coefficient is less than 0.03.)	A
C=CCOc1ccc2c3c(ccc2c1)Oc1ccc2cc(OCC=C)ccc2c1C3c1ccc2ccccc2c1 [BiN-3-AL]	A (5.0% by mass≤amount of dissolution)	A (The refractive index is 1.75 or more.)	A (The absorption coefficient is less than 0.03.)	A
CC(C)(C)OC(=O)COc1ccc2c3c(ccc2c1)Oc1ccc2cc(OCC(=O)OC(C)(C)C)ccc2c1C3c1ccc2ccccc2c1 [BiN-3-MeBOC]	A (5.0% by mass≤amount of dissolution)	B (The refractive index is 1.65 or more and less than 1.75.)	A (The absorption coefficient is less than 0.03.)	A
Oc1ccc2c(C(c3ccc4ccccc4c3)c3c(O)ccc4cc(O)ccc34)c(O)ccc2c1 [BiN-3U]	A (5.0% by mass≤amount of dissolution)	A (The refractive index is 1.75 or more.)	A (The absorption coefficient is less than 0.03.)	A
Oc1ccc2c3c(ccc2c1)Oc1ccc2cc(O)ccc2c1C3c1ccc2ccccc2c1 [BiN-3]	A (5.0% by mass≤amount of dissolution)	A (The refractive index is 1.75 or more.)	A (The absorption coefficient is less than 0.03.)	A
CC1(c2ccc3ccccc3c2)c2c(ccc3ccc(O)cc23)Oc2ccc3ccc(O)cc3c21 [BiN-4]	A (5.0% by mass≤amount of dissolution)	A (The refractive index is 1.75 or more.)	A (The absorption coefficient is less than 0.03.)	A
Oc1cc2ccccc2c(C(c2ccc3ccccc3c2)c2c(O)c(O)cc3ccccc23)c1O [BiN-5U]	A (5.0% by mass≤amount of dissolution)	A (The refractive index is 1.75 or more.)	A (The absorption coefficient is less than 0.03.)	A
